Assay results: patent US20250121046A1, “MRNA THERAPEUTIC COMPOSITIONS” (Nutcracker Therapeutics, Inc., priority 2022, published 2025)
Entries after “also recorded” stand apart in the source; their conditions may differ.

Experiments:
[1] = system: cervical cancer whose tumors express PD-L1 (CPS≥1); details: in combination with chemotherapy, with or without bevacizumab; cited from earlier work
[2] = system: cervical cancer whose tumors express PD-L1 (CPS≥1); details: single agent, disease progression on or after chemotherapy, KEYNOTE-158; cited from earlier work
[3] = Rat toxicology study, control mRNA in DV-140-F2 intramuscular (Example 8); format: in vivo, Sprague-Dawley rats
Experimental: Briefly, Sprague-Dawley rats (n=8) were treated with a control mRNA formulated in DV-140-F2 at 0.03 or 0.3 mg/kg or PBS vehicle. Injections were done 4 times over the course of 13 days and were administered intramuscularly into the hind limb. Whole blood was taken for hematology, and serum taken for clinical chemistry and cytokine analysis at 6 hours post the first dose and final dose, and 2 weeks post the final dose. Additionally, 2 of the animals were sacrificed at 6 hours post the final dose and 2 weeks post final dose and a gross necropsy was performed. Tissue samples were retained and histopathology run on select organs.

[4] = as above; format: in vivo, Sprague-Dawley rats; details: Therapeutic dose scaled for rat: 4 doses in 2 weeks, 30 μg RNA IM
[5] = Mouse efficacy studies, tolerability assessments (Example 8); format: in vivo
CD3+ T cells = test: T cell proliferation in co-culture with LIGHT-transfected HEK cells (Example 1); format: cell-based, human; details: versus soluble (Wt) LIGHT
Experimental: (§1) LIGHT variants were formulated in MessengerMax mRNA Transfection Reagent. Human embryonic kidney (HEK) cells were transfected with the LIGHT variant constructs for cell surface expression of LIGHT. CellTrace Violet (Thermo Fischer Scientific) was used to label CD3+ T cells from the resulting peripheral blood mononuclear cells (PBMC). 100 ng/mL of soluble CD3 Antibody was added to the resulting labeled CD3+ T cells. The T cell proliferation and interferon-gamma (IFN-7) secretion was evaluated about 5 days of co-culture.

HVEM = biological target: T1, HVEM (Homo sapiens, UniProt Q92956); test: HVEM activation by LIGHT-transfected cells (HVEM reporter cell line); format: cell-based
T1 construct: host or cells: HVEM reporter cell line (not further described)
T1 sequence (Q92956 39-283): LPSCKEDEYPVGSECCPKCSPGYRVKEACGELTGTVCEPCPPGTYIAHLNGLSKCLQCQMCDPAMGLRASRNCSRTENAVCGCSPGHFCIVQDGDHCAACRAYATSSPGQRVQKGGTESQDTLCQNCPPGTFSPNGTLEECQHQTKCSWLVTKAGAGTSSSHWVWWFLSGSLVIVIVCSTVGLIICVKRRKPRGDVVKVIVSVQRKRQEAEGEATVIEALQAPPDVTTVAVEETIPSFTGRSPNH
Excerpt: FIGS. 1A and 1B depict the inhibition of the activation of membrane-stabilized LIGHT by soluble LIGHT.
FIG. 12 illustrates pre-blocking of soluble LIGHT in HVEM co-HEK transfected cells.
FIGS. 13A-13C are a comparison of HVEM activation with supernatant (blue) or cells (orange) for soluble LIGHT or membrane-stabilized LIGHT.
The incorporation of a modified membrane-stabilized LIGHT into a cancer immunotherapy allows for the effective targeting cancers, such as HPV-driven cancers.
[…] FIGS. 13A-13C show increased function of membrane-stabilized LIGHT on cells with HVEM reporter cell line and FIGS. 14A and 14B show increased cellular expression of membrane-stabilized LIGHT.

HEK cells = test: Surface expression of LIGHT on transfected cells by flow cytometry using HVEM binding; format: cell-based, human; details: compared to soluble (wild type) LIGHT
Excerpt: FIG. 2A-2D are graphs illustrating the membrane-bound protein produced by the membrane-stabilized LIGHT generated according to an aspect of this disclosure as compared to soluble LIGHT.
FIGS. 14A and 14B depict the assessment of surface expression of soluble LIGHT or membrane-stabilized LIGHT by flow cytometry using HVEM binding.
This enhanced membrane stability for the disclosed membrane-stabilized LIGHT may increase the beneficial activity of LIGHT.
as §1

primary human T cells = test: Human T cell proliferation, ENG or WT hLIGHT mRNA with hIL-12 mRNA (Example 1A); format: cell-based; details: anti-CD3 30 or 100 ng/mL, 4 days, relative to IL-12 and WT hLIGHT
Experimental: This study was designed to compare the ability of ENG and WT hLIGHT mRNAs in combination with hIL-12 mRNA to stimulate primary human T cell proliferation. Human T cells were isolated from PBMCs from 1 healthy donor and stained with CellTrace Violet. HEK293 cells were transfected with hIL-12 mRNA (RNA-683) and WT hLIGHT (RNA-786) or ENG hLIGHT (RNA-1359) mRNA formulated in Lipofectamine MessengerMAX (0.5 ng each mRNA per 1000 cells). Control cells were transfected with noncoding mRNA control in the same way. Transfected HEK293 cells were cocultured with the T cells in a 1:5 ratio in the presence of 30 ng/mL or 100 ng/mL anti-CD3 antibody to mimic antigen specific TCR engagement for 4 days at 37° C., 5% CO2. CD8+ T cell proliferation was assessed by flow cytometry and the proliferation index was calculated. […] The results are shown in FIG. 10A, where ENG=engineered; HEK=human embryonic kidney; IL-12=interleukin-12; PBMC=peripheral blood mononuclear cell; WT=wildtype. The data in FIG. 10A represent mean±standard deviation (n=4). Statistical analysis was performed by unpaired student's t-test (P<0.05).

[6] = High dose in rat: 4 doses in 2 weeks, 100 μg RNA IM
[7] = Therapeutic dose in mouse: 3 doses 7 days apart, ~1-2 μg RNA IT or IM

pembrolizumab [KEYTRUDA]
overall survival [1]: improvements | objective response [2]: around 14%

CCCCCCCCCCN(CC(N)=O)C(=O)CN(CCCCCCCCCC)C(=O)CN(CCCCCCCCCC)C(=O)CN(CCCCCCCCCC)C(=O)CNCCO [Compound 140, N-(2-amino-2-oxoethyl)-N-decyl-2-(N-decyl-2-(N-decyl-2-(N-decyl-2-((2-hydroxyethyl)amino)acetamido)acetamido)acetamido)acetamide]
Gross organ pathology [3, 6]: None observed | Injection site reactions or other clinical observations [3, 6]: None observed | Clinical chemistries ([3]; High dose in rat: 4 doses in 2 weeks, 100 μg RNA IM, compared to control): No meaningful changes | Hematology parameters ([3]; High dose in rat: 4 doses in 2 weeks, 100 μg RNA IM, return to baseline by D30): Some transient changes | Serum cytokines ([3]; High dose in rat: 4 doses in 2 weeks, 100 μg RNA IM, subset of cytokines, return to baseline by D30): Elevated levels in subset | tolerability ([3]; rat toxicology studies): well-tolerated | Body weight [4]: No changes compared | Gross organ pathology [4]: None observed | Injection site reactions or other clinical observations [4]: None observed | Clinical chemistries ([4]; compared to control): No meaningful changes | Hematology parameters ([4]; compared to control): No changes compared | Serum cytokines ([4]; compared to control): No changes compared | Body weight [5, 7]: No changes compared | Injection site reactions or other clinical observations [5, 7]: None observed | tolerability ([5]; mouse efficacy studies): well-tolerated

B1: 1356: mRNA encoding LIGHT ICD + TM (1-66) + (Gly4Ser)2 + LIGHT 92-240 (nucleic acid)
chain: AGGCAUAGAAGUCGAGACACAGCCACUAAGUAAGCCACCAUGGAAGAGUCUGUGGUCAGACCUAGCGUGUUCGUGGUCGACGGCCAGACCGACAUCCCCUUCACCAGACUGGGAAGAAGCCAUAGAAGACAGAGCUGCAGCGUGGCCAGAGUGGGCCUCGGCCUGCUGCUGCUGCUGAUGGGCGCUGGCCUGGCCGUGCAAGGCUGGUUCCUGCUGCAGCUGCACUGGCGGCUGGGCGGAGGCGGCGGCUCUGGCGGCGGAGGCUCCGUGAACCCCGCCGCCCACCUGACCGGCGCCAACAGCAGCCUGACAGGCAGCGGCGGUCCUCUGCUGUGGGAAACCCAGCUGGGACUGGCUUUUCUGAGAGGCCUGAGCUACCACGACGGCGCCCUGGUGGUGACCAAGGCCGGCUAUUACUACAUCUACAGCAAGGUGCAGCUGGGCGGCGUUGGAUGUCCUCUGGGCCUGGCUUCUACAAUCACCCACGGCCUGUACAAGCGGACCCCUAGAUACCCUGAGGAACUGGAGCUGCUGGUGUCCCAGCAGUCCCCAUGCGGCCGGGCCACAAGCUCUUCUAGAGUGUGGUGGGAUAGCAGCUUCCUGGGCGGAGUGGUGCACCUCGAGGCCGGAGAGAAAGUGGUGGUGCGGGUGCUGGAUGAGAGACUGGUUAGGCUGCGCGACGGCACACGGAGCUACUUCGGCGCCUUUAUGGUGUGAUAAGCGCCGCCUCCGGGACAGUGCACCCAGGCUGCGGCCCCUCCCCCGUCCUGGAGGUUCCCCAGCCCCACUUACCGCUUAAUGCGCCAAUAAACCAAUGAACGAAGCAAAAAAAAAAAAAAAAAAAAAAAAAAAAAAAAAAAAAAAAAAAAAAAAAAAAAAAAAAAAAAAAAAAAAAAAAAAAAAAAAAAAAAAAAAAAAAAAAAAAAAAAAAAAAAAAAAAAAAAAAAAAAAAAAAAAAAAAAAAAAAAAAAAAAAAAAAAAAAAAAAAAAAAAA
modifications: LIGHT ICD TM 1-66 RLG Gly4Ser 2 LIGHT 92-240 1356 nt
T-cell proliferation (CD3+ T cells): increase

B2: soluble LIGHT: Wild-type soluble human LIGHT (protein)
chain: MEESVVRPSVFVVDGQTDIPFTRLGRSHRRQSCSVARVGLGLLLLLMGAGLAVQGWFLLQLHWRLGEMVTRLPDGPAGSWEQLIQERRSHEVNPAAHLTGANSSLTGSGGPLLWETQLGLAFLRGLSYHDGALVVTKAGYYYIYSKVQLGGVGCPLGLASTITHGLYKRTPRYPEELELLVSQQSPCGRATSSSRVWWDSSFLGGVVHLEAGEEVVVRVLDERLVRLRDGTRSYFGAFMV
modifications: Human Wild Type LIGHT (786) aa
effect of soluble LIGHT on HVEM activation/signaling by membrane-stabilized LIGHT (HVEM; presence of soluble LIGHT): decreases; also recorded: competes for HVEM binding and reduces signaling

B3: ENG hLIGHT: mRNA encoding human LIGHT with amino acids 66-92 replaced by 10 amino acid linker …; membrane-stabilized (nucleic acid)
chain: AGGCAUAGAAGUCGAGACACAGCCACUAAGUAAGCCACCAUGGAGGAGAGCGUGGUGCGGCCUAGCGUGUUCGUGGUCGACGGCCAGACCGACAUCCCCUUCACCAGACUGGGAAGAAGCCACAGAAGGCAGUCUUGCUCCGUGGCCAGAGUGGGCCUGGGCCUGCUCCUGCUGCUGAUGGGCGCUGGCCUGGCCGUGCAAGGCUGGUUCCUGCUGCAGCUGCACUGGCGGCUGGGCAGCAGCGCCUCUACCGAUAAGACCCACACCGUGAACCCUGCCGCCCACCUGACCGGCGCCAACAGCUCUCUGACCGGAUCUGGCGGACCUCUGCUGUGGGAGACACAGCUGGGCCUUGCUUUUCUGCGGGGCCUGAGCUACCACGACGGCGCUCUGGUGGUUACAAAGGCCGGCUACUACUACAUCUACAGCAAGGUGCAGCUGGGAGGCGUGGGUUGUCCACUGGGACUGGCCAGCACAAUCACACACGGCCUUUAUAAGCGGACCCCUAGAUACCCCGAGGAACUGGAACUGCUGGUCUCCCAGCAGAGCCCUUGCGGCAGAGCCACAAGCAGCAGCAGAGUGUGGUGGGACAGCUCAUUCCUGGGCGGCGUGGUGCAUCUGGAAGCCGGCGAGAAAGUGGUGGUCAGAGUGCUGGACGAGAGACUGGUGCGGCUGAGAGAUGGGACCCGCUCCUACUUCGGCGCCUUUAUGGUGUGAUAAGCGCCGCCUCCGGGACAGUGCACCCAGGCUGCGGCCCCUCCCCCGUCCUGGAGGUUCCCCAGCCCCACUUACCGCUUAAUGCGCCAAUAAACCAAUGAACGAAGCAAAAAAAAAAAAAAAAAAAAAAAAAAAAAAAAAAAAAAAAAAAAAAAAAAAAAAAAAAAAAAAAAAAAAAAAAAAAAAAAAAAAAAAAAAAAAAAAAAAAAAAAAAAAAAAAAAAAAAAAAAAAAAAAAAAAAAAAAAAAAAAAAAAAAAAAAAAAAAAAAAAAAAAAA
modifications: LIGHT ICD TM 1-66 RLG … LIGHT 92-240 1359, aka 1495 nt
notes: mRNA encoding human LIGHT with amino acids 66-92 replaced by 10 amino acid linker …; membrane-stabilized
soluble fraction (HEK cells): significantly lower | cell-surface expression of membrane-bound protein (HEK cells; listed as ENG LIGHT mRNA): higher | cell-surface expression of membrane-bound protein (HEK cells; listed as Engineered LIGHT): significantly higher | bioactivity on transfected cells (HVEM; compared to WT LIGHT mRNA): higher | T-cell proliferation (CD3+ T cells; listed as 1359): increase | T-cell proliferation (CD3+ T cells; listed as ENG LIGHT mRNA): increased | CD8+ T cell proliferation and survival (primary human T cells): increased
